Data on 37 compounds can be found in patent US10626094B2 (La Jolla Institute of Allergy & Immunology, priority 2014, dated 2020).

Structures are written as SMILES.

By IC50 is commonly meant the concentration that inhibits the measured activity by half.

Chain of LMPTP-A (Low Molecular Weight Protein Tyrosine Phosphatase-A) enzyme (P24666 whole entry): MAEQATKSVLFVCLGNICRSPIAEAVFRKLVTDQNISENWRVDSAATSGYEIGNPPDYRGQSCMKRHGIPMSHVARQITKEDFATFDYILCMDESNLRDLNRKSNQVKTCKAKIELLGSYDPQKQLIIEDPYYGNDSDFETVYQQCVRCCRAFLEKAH

This experiment has as its target LMPTP-A (Low Molecular Weight Protein Tyrosine Phosphatase-A) enzyme (Homo sapiens (Human), UniProt P24666). Briefly: LMPTP primary screening / LMPTP (OMFP) enzyme inhibition assay, fluorescence intensity. The experiment is classed as biochemical. Conditions: LMPTP-A, OMFP substrate, method of Example 2; read-out: IC50. On the procedure:
This assay attempts to identify inhibitors of the LMPTP-A (Low Molecular Weight Protein Tyrosine Phosphatase-A) enzyme. It is run in 1536-well format and is measured via fluorescence intensity.
A listing of materials is provided: • Item, source, catalog no. • LMPTP-A Enzyme Stock Solution (4.22 mg/ml or 206.8 μM), SBMRI Protein Facility, • N/A • OMFP, Sigma, M2629-100MG • Bis-Tris pH 6.0, Fisher Sci, BP301-100 • Triton-X 100, Sigma, T9284 • DTT, Sigma, D9779 • Mol. Grade Water, Mediatech, Inc., 46-000-CM • 1536-well black High base opaque bottom plate, Nexus Biosystems, 00019120
Final assay conditions are: • 0.625 nM LMPTP-A Enzyme • 400 μM OMFP • 50 mM Bis-Tris pH 6.0 • 1 mM DTT • 0.01% Triton-X 100 • 20 μM test compound • 3% DMSO (2% from substrate and 1% from compounds) • 6 μL reaction volume • 50 minutes incubation at room temp
Assay Procedure • 1. Prepare Reagents as described in section F. Recipe. • 2. Using LabCyte Echo, transfer 60 nL from 2 mM test compound source plate into assay plate Col. 5-48 (final concentration of test compounds is 20 μM). 60 nL of DMSO should be transferred to col. 1-4 for positive and negative control wells. • 3. Spin plates at 1000 rpm for 1 minute in centrifuge. • 4. […] Using the Bioraptr, add 3 μL/well of enzyme solution to col. 3-48. • 6. Using the Bioraptr, add 3 μL/well of substrate solution to col. 1-48. • 7. Spin plates at 1000 rpm for 1 minute in centrifuge. • 8. Incubate plates in the dark at room temperature for 50 minutes. • 9. Read plates on PerkinElmer Viewlux using a FI protocol.
Turning to `COc1ccc(-c2cc(NCc3cccc(C#N)c3)c3ccccc3n2)cc1` [Compound G82, 3-({[2-(4-methoxyphenyl)-4-quinolyl]amino}methyl)benzenecarbonitrile], the IC50 was in the range of 801 to 5000 nM.

Consider `COc1ccc(-c2cc(NCCc3ccccc3)c3ccccc3n2)cc1` [Compound G83, [2-(4-methoxyphenyl)(4-quinolyl)](2-phenylethyl)amine], for which the IC50 fell in the range of 801 to 5000 nM.

As for `COc1ccc(-c2cc(NCCc3ccc(Cl)cc3)c3ccccc3n2)cc1` [Compound G84, [2-(4-chlorophenyl)ethyl][2-(4-methoxyphenyl)(4-quinolyl)]amine], the IC50 fell in the range of 801 to 5000 nM.

For `COc1ccc(CCNc2cc(-c3ccc(OC)cc3)nc3ccccc23)cc1` [Compound G85, [2-(4-methoxyphenyl)(4-quinolyl)][2-(4-methoxyphenyl)ethyl]amine], the IC50 lay within 801 to 5000 nM.

As for `COc1ccc(-c2cc(NCCc3ccc(C(F)(F)F)cc3)c3ccccc3n2)cc1` [Compound G86, [2-(4-methoxyphenyl)(4-quinolyl)]{2-[4-(trifluoromethyl)phenyl]ethyl}amine], the IC50 was in the range of 801 to 5000 nM.

Regarding `COc1ccc(-c2cc(NCCc3ccc(F)cc3)c3ccccc3n2)cc1` [Compound G87, [2-(4-fluorophenyl)ethyl][2-(4-methoxyphenyl)(4-quinolyl)]amine], the IC50 lay within 801 to 5000 nM.

`CCN(CC)C(=O)c1ccc(-c2cc(NCCCN3CCCCC3)c3ccccc3n2)cc1` [Compound I1, N,N-diethyl-4-(4-((3-(piperidin-1-yl)propyl)amino)quinolin-2-yl)benzamide]: the IC50 lay in the range of 200 to 800 nM.

As to `c1ccc2c(NCCCN3CCCCC3)cc(-c3ccc(OC4CCCCO4)cc3)nc2c1` (stereo not shown) [Compound I1I3, [2-(4-(2H-3,4,5,6-tetrahydropyran-2-yloxy)phenyl)(4-quinolyl)](3-piperidylpropyl)amine], the IC50 lay in the range of 801 to 5000 nM.

Regarding `N#Cc1ccccc1-c1cc(Nc2cccc(CN3CCCC3)c2)c2ccccc2n1` [Compound I2, 2-(4-{[3-(pyrrolidinylmethyl)phenyl]amino}-2-quinolyl)benzenecarbonitrile], the IC50 is 801 to 5000 nM.

Take `NC(=O)c1ccc(-c2cc(Nc3cccc(CC4CCNCC4)c3)c3ccccc3n2)cc1` [Compound I3, 4-(4-{[3-(4-piperidylmethyl)phenyl]amino}-2-quinolyl)benzamide]: the IC50 fell in the range of 801 to 5000 nM.

Take `CN(C)Cc1cccc(Nc2cc(-c3ccc(C(N)=O)cc3)nc3ccccc23)c1` [Compound I4, 4-[4-({3-[(dimethylamino)methyl]phenyl}amino)-2-quinolyl]benzamide]: the IC50 was more than 5000 nM.

Regarding `NC(=O)c1ccc(-c2cc(Nc3cccc(CN4CCCC4)c3)c3ccccc3n2)cc1` [Compound I5, 4-(4-{[3-(pyrrolidinylmethyl)phenyl]amino}-2-quinolyl)benzamide], the IC50 is more than 5000 nM.

Turning to `NC(=O)c1ccc(-c2cc(Nc3ccc(CN4CCCCC4)cc3)c3ccccc3n2)cc1` [Compound I6, 4-(4-{[4-(piperidylmethyl)phenyl]amino}-2-quinolyl)benzamide], the IC50 is more than 5000 nM.

Regarding `Fc1cc(Cl)ccc1-c1cc(Nc2cccc(CC3CCNCC3)c2)c2ccccc2n1` [Compound I7, [2-(4-chloro-2-fluorophenyl)(4-quinolyl)][3-(4-piperidylmethyl)phenyl]amine], the IC50 lay in the range of 801 to 5000 nM.

As to `Fc1cc(Cl)ccc1-c1cc(Nc2ccc(CN3CCCCC3)cc2)c2ccccc2n1` [Compound I8, [2-(4-chloro-2-fluorophenyl)(4-quinolyl)][4-(piperidylmethyl)phenyl]amine], the IC50 lay in the range of 801 to 5000 nM.

`Fc1cc(Cl)ccc1-c1cc(Nc2cccc(CN3CCCC3)c2)c2ccccc2n1` [Compound I10]: the IC50 is 801 to 5000 nM.

`Clc1cccc(-c2cc(Nc3ccc(CN4CCCCC4)cc3)c3ccccc3n2)c1` [Compound I11, [2-(3-chlorophenyl)(4-quinolyl)][4-(piperidylmethyl)phenyl]amine]: the IC50 was 801 to 5000 nM.

In the case of `Clc1cccc(-c2cc(Nc3cccc(CN4CCCC4)c3)c3ccccc3n2)c1` [Compound I12, [2-(3-chlorophenyl)(4-quinolyl)][3-(pyrrolidinylmethyl)phenyl]amine], the IC50 was 801 to 5000 nM.

On to `CN(C)Cc1cc(CO)cc(Nc2cc(-c3cccc(Cl)c3)nc3ccccc23)c1` [Compound I13, (5-[(dimethylamino)methyl]-3-{[2-(3-chlorophenyl)(4-quinolyl)]amino}phenyl)methan-1-ol], for which the IC50 was 801 to 5000 nM.

`CN(C)c1cccc(Nc2cc(-c3cccc(Cl)c3)nc3ccccc23)c1` [Compound I14, (3-{[2-(3-chlorophenyl)(4-quinolyl)]amino}phenyl)dimethylamine]: the IC50 was 801 to 5000 nM.

Turning to `CN1CCCC1CCNc1cc(-c2cccc(Cl)c2)nc2ccccc12` (stereo not shown) [Compound I15, [2-(3-chlorophenyl)(4-quinolyl)][2-(1-methylpyrrolidin-2-yl)ethyl]amine], the IC50 was in the range of 801 to 5000 nM.

Consider `CN(C)Cc1ccc(Nc2cc(-c3cccc(Cl)c3)nc3ccccc23)cc1` [Compound I16, [(4-{[2-(3-chlorophenyl)(4-quinolyl)]amino}phenyl)methyl]dimethylamine], for which the IC50 was 801 to 5000 nM.

In the case of `Clc1cccc(-c2cc(Nc3cccc(CC4CCN(Cc5ccccc5)CC4)c3)c3ccccc3n2)c1` [Compound I17, [2-(3-chlorophenyl)(4-quinolyl)](3-{[1-benzyl(4-piperidyl)]methyl}phenyl)amine], the IC50 lay in the range of 801 to 5000 nM.

Consider `CN1CCC(Cc2cccc(Nc3cc(-c4cccc(Cl)c4)nc4ccccc34)c2)CC1` [Compound I18, [2-(3-chlorophenyl)(4-quinolyl)]{3-[(1-methyl(4-piperidyl))methyl]phenyl}amine], for which the half-maximal inhibitory concentration (IC50) is 801 to 5000 nM.

For the compound `Clc1cccc(-c2cc(Nc3cccc(CC4CCNCC4)c3)c3ccccc3n2)c1` [Compound I19, [2-(3-chlorophenyl)(4-quinolyl)][3-(4-piperidylmethyl)phenyl]amine], the IC50 was 801 to 5000 nM.

`Clc1cccc(-c2cc(Nc3cccc(CC4CCNCC4)c3)c3ccccc3n2)c1` [Compound I20, [2-(3-chlorophenyl)(4-quinolyl)][3-(4-piperidylmethyl)phenyl]amine]: the IC50 was 801 to 5000 nM.

With `Clc1cccc(-c2cc(Nc3ccccc3CC3CCNCC3)c3ccccc3n2)c1` [Compound I21, [2-(3-chlorophenyl)(4-quinolyl)][2-(4-piperidylmethyl)phenyl]amine], the IC50 fell in the range of 801 to 5000 nM.

Turning to `CN(C)Cc1cccc(Nc2cc(-c3cccc(Cl)c3)nc3ccccc23)c1` [Compound I22, [(3-{[2-(3-chlorophenyl)(4-quinolyl)]amino}phenyl)methyl]dimethylamine], the IC50 lay within 200 to 800 nM.

Regarding `COc1ccc(-c2cc(Nc3ccc(CN4CCCCC4)cc3)c3ccccc3n2)cc1` [Compound I23, [2-(4-methoxyphenyl)(4-quinolyl)][4-(piperidylmethyl)phenyl]amine], the 50% inhibitory concentration (IC50) was 801 to 5000 nM.

Regarding `COc1ccc(-c2cc(NCCC3CCCN3C)c3ccccc3n2)cc1` (stereo not shown) [Compound I24, [2-(4-methoxyphenyl)(4-quinolyl)][2-(1-methylpyrrolidin-2-yl)ethyl]amine], the IC50 was 801 to 5000 nM.

For the compound `COc1ccc(-c2cc(Nc3cccc(N(C)C)c3)c3ccccc3n2)cc1` [Compound I25, (3-{[2-(4-methoxyphenyl)(4-quinolyl)]amino}phenyl)dimethylamine], the IC50 fell in the range of 801 to 5000 nM.

Turning to `COc1ccc(-c2cc(Nc3ccc(CN(C)C)cc3)c3ccccc3n2)cc1` [Compound I26, [(4-{[2-(4-methoxyphenyl)(4-quinolyl)]amino}phenyl)methyl]dimethylamine], the IC50 lay in the range of 801 to 5000 nM.

For the compound `COc1ccc(-c2cc(Nc3cccc(Cc4nn[nH]n4)c3)c3ccccc3n2)cc1` [Compound I27, [2-(4-methoxyphenyl)(4-quinolyl)][3-(2H-1,2,3,4-tetraazol-5-ylmethyl)phenyl]amine], the IC50 lay within 801 to 5000 nM.

For the compound `COc1ccc(-c2cc(Nc3cccc(CC4CCN(S(C)(=O)=O)CC4)c3)c3ccccc3n2)cc1` [Compound I28, 4-[(3-{[2-(4-methoxyphenyl)(4-quinolyl)]amino}phenyl)methyl]-1-(methylsulfonyl)piperidine], the IC50 lay in the range of 801 to 5000 nM.

For `COc1ccc(-c2cc(Nc3cccc(CC4CCN(C(C)=O)CC4)c3)c3ccccc3n2)cc1` [Compound I29, 1-acetyl-4-[(3-{[2-(4-methoxyphenyl)(4-quinolyl)]amino}phenyl)methyl]piperidine], the IC50 lay in the range of 200 to 800 nM.

As to `CCN1CCC(Cc2cccc(Nc3cc(-c4ccc(OC)cc4)nc4ccccc34)c2)CC1` [Compound I30, {3-[(1-ethyl(4-piperidyl))methyl]phenyl}[2-(4-methoxyphenyl)(4-quinolyl)]amine], the IC50 lay within 200 to 800 nM.

`COc1ccc(-c2cc(Nc3cccc(CC4CCN(C)CC4)c3)c3ccccc3n2)cc1` [Compound I31, [2-(4-methoxyphenyl)(4-quinolyl)]{3-[(1-methyl(4-piperidyl))methyl]phenyl}amine]: the IC50 was 200 to 800 nM.
